Source: ChEMBL document CHEMBL1201862, “PubChem BioAssay data set” (2004)
Activity calls are given as the source filed them.

Tests used:
HEK293 [1] = experiment: cells; format: functional, cell-based; conditions: Homo sapiens
[2] = target: T1, Nuclear receptor subfamily 0 group B member 1 (Homo sapiens, UniProt P51843); experiment: Luminescence-based cell-based high throughput dose response assay for inhibitors of the orphan nuclear receptor subfamily 0, group B, member 1 (DAX1; NR0B1). [Related pubchem assays (depositor defined):AID504766, AID504790]; format: functional
T1 sequence (P51843 whole entry): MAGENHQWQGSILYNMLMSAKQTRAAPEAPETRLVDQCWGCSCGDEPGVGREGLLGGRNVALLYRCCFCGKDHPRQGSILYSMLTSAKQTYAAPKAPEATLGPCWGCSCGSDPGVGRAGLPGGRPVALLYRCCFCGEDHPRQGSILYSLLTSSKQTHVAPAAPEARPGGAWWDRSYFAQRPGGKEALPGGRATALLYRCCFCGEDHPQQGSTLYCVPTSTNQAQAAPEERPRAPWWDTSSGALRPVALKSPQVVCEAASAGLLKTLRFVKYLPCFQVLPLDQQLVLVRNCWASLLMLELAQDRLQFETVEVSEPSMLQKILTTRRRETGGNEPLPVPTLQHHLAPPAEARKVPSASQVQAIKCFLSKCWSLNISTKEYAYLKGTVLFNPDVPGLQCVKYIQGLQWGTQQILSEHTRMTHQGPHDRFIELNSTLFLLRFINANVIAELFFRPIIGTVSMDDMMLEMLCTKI

[3] = target: Ras and Rab interactor 1/Tyrosine-protein kinase ABL1 (Homo sapiens, UniProt P00519+Q13671); format: functional;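 note: biochemical TR-FRET dose-response test measuring inhibition of binding between Rin1 and Abl proteins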
Ras and Rab interactor 1/Tyrosine-protein kinase ABL1, sequence (P00519 whole entry): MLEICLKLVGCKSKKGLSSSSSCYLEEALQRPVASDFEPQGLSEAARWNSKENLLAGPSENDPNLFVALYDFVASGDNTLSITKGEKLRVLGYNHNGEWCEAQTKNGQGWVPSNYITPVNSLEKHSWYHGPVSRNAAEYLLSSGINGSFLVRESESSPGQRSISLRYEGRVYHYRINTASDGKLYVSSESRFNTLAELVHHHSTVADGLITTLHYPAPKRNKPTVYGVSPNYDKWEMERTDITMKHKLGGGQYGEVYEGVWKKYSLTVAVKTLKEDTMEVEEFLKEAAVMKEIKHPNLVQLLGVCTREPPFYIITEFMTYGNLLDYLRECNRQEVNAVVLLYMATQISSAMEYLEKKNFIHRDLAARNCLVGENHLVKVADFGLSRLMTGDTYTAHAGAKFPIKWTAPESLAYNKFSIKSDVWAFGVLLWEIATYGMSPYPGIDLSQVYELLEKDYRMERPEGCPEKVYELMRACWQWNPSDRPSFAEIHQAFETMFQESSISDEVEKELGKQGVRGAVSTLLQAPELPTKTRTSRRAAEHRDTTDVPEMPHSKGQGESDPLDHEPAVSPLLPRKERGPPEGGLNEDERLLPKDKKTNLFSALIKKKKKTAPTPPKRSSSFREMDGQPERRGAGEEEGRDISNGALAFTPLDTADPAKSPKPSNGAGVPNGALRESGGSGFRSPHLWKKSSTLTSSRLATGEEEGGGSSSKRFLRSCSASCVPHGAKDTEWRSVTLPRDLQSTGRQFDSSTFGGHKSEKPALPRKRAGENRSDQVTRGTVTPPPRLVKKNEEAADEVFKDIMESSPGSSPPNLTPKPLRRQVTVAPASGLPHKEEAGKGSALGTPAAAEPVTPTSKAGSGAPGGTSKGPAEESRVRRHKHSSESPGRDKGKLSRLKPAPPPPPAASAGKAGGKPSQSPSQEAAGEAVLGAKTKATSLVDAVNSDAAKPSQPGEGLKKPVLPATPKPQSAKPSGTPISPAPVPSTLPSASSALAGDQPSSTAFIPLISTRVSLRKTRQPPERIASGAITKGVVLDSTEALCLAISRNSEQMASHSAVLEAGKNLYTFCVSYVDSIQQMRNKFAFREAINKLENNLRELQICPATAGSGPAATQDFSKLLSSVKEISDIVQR
Ras and Rab interactor 1/Tyrosine-protein kinase ABL1, sequence (Q13671 whole entry): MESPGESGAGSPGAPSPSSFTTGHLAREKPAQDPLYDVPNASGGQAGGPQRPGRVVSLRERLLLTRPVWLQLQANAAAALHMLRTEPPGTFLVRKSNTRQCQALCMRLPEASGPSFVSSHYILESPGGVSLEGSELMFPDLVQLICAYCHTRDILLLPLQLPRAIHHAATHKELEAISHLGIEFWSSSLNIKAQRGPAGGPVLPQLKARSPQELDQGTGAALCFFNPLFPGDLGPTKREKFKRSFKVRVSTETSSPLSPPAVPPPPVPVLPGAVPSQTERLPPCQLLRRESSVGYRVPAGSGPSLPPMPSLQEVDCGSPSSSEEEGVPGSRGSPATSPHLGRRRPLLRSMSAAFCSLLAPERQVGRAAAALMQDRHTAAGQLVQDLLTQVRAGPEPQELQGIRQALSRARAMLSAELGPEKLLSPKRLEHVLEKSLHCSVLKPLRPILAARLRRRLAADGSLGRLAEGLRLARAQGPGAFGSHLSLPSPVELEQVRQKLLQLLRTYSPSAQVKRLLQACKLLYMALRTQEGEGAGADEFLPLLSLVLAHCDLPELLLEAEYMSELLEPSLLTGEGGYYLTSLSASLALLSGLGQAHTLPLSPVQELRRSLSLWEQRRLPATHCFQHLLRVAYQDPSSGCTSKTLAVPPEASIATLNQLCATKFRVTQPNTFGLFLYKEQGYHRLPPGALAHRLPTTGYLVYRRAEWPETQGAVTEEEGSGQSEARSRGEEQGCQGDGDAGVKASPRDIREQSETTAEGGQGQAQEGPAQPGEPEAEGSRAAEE

HeLa = experiment: ATP-based viability loss in HeLa cells – cell-based, CellTiter-Glo luminescence, cherry-pick samples, cytotoxicity control for MITF activator project, dose response (AID 540259); format: functional; conditions: Homo sapiens
[4] = Luminescence Cell-Based Dose Retest to Confirm Inhibitors of Cancer Stem Cells. [Related pubchem assays (depositor defined):AID2717, AID2721]; format: functional; conditions: Homo sapiens
Vero [5] = experiment: cells; format: functional; conditions: Chlorocebus sabaeus
Vero [6] = experiment: cells; format: functional, cell-based; conditions: Chlorocebus sabaeus
[7] = target: T2, Heat shock factor protein 1 (Mus musculus, UniProt P38532); experiment: enhancement of HSF1-driven luciferase signal – cell-based, NIH3T3, luminescence, dose retest, confirmation (AID 435004); format: functional;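 note: stress induced by proteasome inhibitor MG132 added 30 min after compound; luciferase reporter driven by HSF1 response element in NIH3T3 cells; actives raise luminescence as potentiators of the MG132 stress response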
T2 sequence (P38532 whole entry): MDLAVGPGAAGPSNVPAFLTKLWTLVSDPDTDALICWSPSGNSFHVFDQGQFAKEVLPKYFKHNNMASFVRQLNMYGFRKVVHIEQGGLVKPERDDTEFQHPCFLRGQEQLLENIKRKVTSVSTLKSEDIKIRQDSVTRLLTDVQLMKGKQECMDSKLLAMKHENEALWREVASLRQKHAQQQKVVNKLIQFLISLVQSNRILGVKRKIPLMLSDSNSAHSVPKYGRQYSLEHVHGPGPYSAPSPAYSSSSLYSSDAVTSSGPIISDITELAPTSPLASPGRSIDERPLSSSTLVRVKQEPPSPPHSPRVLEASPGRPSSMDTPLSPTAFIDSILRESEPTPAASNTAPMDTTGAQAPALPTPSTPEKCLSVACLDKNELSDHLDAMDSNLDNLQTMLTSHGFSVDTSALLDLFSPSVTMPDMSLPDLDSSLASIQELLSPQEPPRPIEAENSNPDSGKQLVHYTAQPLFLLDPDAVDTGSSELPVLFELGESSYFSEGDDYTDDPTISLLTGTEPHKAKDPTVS

Protein Wnt-3a = Protein Wnt-3a (Mus musculus, UniProt P27467); experiment: antagonism of Wnt3a pathway luciferase reporter – Wnt-LIGHT cells, luminescence, selectivity assay for Gli-SUFU antagonist project, dose response (AID 651570); format: functional; conditions: read-out: IC50_Mean;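 note: Wnt-LIGHT reporter cells stimulated with conditioned medium from Wnt3a-producing cells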
Protein Wnt-3a, sequence (P27467 whole entry): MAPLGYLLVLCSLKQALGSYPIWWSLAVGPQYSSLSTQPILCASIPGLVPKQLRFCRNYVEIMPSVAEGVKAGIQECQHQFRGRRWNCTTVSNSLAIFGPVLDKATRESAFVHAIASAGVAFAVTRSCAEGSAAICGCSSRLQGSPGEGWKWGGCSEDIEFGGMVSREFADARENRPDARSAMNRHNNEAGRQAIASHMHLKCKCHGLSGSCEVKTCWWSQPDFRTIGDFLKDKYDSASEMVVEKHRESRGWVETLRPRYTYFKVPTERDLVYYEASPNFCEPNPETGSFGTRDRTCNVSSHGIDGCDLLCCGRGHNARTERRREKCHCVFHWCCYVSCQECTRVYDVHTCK

Galanin receptor type 3 = Galanin receptor type 3 (Homo sapiens, UniProt O60755); experiment: Fluorescence-based cell-based primary high throughput dose response assay to identify antagonists of the Galanin Receptor 3 (GalR3).; format: functional
Galanin receptor type 3, sequence (O60755 whole entry): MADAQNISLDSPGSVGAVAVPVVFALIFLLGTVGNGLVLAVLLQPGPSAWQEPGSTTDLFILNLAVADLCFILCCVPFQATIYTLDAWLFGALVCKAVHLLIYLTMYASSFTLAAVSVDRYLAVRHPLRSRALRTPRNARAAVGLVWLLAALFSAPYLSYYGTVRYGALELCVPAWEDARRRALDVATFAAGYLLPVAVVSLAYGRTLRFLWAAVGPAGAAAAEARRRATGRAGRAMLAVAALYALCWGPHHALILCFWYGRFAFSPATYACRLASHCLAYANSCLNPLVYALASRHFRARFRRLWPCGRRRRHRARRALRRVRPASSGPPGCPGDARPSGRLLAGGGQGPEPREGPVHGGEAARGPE

HEK293 [8] = experiment: cells; conditions: Homo sapiens
Tumor necrosis factor = Tumor necrosis factor (Homo sapiens, UniProt P01375); experiment: analog potency on TNFa NF-kB signaling – cell-based, revised, SAR follow-up (AID 2337); format: functional
Tumor necrosis factor, sequence (P01375 whole entry, the tested form may be a part): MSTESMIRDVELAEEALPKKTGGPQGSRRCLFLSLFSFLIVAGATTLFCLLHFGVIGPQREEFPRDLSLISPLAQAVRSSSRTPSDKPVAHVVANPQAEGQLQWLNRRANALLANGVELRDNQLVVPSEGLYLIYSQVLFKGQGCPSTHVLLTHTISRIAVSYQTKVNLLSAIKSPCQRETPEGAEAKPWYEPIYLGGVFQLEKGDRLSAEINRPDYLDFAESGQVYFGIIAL

[9] = target: T3, Nucleotide-binding oligomerization domain-containing protein 1 (Homo sapiens, UniProt Q9Y239); experiment: blockers of NOD1 pathway activity – revised, SAR follow-up (AID 2333); format: functional
T3 sequence (Q9Y239 whole entry): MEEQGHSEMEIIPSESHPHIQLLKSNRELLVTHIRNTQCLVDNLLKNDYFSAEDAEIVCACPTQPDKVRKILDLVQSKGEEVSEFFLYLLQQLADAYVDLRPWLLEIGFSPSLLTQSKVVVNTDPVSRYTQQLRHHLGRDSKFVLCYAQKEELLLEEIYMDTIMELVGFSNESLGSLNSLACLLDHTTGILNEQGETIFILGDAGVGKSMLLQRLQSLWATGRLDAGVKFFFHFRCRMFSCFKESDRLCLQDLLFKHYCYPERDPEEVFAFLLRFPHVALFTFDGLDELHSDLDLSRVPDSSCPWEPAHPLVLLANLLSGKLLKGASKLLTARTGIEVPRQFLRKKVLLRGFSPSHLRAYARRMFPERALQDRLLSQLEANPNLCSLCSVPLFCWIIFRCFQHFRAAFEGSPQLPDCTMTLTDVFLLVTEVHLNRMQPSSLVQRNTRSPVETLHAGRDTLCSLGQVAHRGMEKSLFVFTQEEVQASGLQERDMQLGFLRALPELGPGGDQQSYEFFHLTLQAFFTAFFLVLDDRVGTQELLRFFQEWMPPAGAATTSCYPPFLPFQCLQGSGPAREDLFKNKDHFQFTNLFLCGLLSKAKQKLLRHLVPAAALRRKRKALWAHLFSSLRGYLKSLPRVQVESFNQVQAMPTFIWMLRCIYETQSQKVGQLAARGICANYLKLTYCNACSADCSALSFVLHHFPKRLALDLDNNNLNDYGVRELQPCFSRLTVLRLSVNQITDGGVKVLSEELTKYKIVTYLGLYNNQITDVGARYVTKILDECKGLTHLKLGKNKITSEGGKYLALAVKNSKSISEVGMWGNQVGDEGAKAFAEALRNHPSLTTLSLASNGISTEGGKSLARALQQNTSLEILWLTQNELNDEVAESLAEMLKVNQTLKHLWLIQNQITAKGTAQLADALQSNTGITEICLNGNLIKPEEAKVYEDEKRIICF

[10] = target: T4, COUP transcription factor 2 (Homo sapiens, UniProt P24468); experiment: Luminescence-based cell-based high throughput dose response assay to identify inhibitors of COUP-TFII (NR2F2).; format: functional;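 note: HEK293 cells transiently cotransfected with COUP-TFII expression vector and reporter; luciferase reporter luminescence driven by COUP-TFII from the pX2-168 reporter plasmid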
T4 sequence (P24468 whole entry): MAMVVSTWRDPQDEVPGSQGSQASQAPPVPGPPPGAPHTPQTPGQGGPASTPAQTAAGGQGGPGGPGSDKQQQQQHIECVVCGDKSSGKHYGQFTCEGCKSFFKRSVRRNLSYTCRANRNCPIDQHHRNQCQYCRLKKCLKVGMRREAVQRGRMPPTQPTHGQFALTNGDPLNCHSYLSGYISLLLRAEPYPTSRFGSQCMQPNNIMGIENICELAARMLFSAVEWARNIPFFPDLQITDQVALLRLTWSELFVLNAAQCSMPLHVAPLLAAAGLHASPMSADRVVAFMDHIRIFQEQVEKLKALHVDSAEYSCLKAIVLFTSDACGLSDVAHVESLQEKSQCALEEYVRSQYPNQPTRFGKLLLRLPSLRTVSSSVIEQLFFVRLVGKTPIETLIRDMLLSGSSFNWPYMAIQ

cells [11] = format: functional, cell-based; conditions: HEK-CNG
INS1 = experiment: INS-1E survival protection against cytokine death – cell-based, luminescence, retest, dose response (AID 449756); format: functional; conditions: Rattus norvegicus;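 note: cell death triggered by IL-1 beta plus TNF-alpha plus IFN-gamma mixture; protective hits raise ATP signal compared with cytokine alone wells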
[12] = microbe, parasite or virus in culture; format: functional; conditions: Mycobacterium tuberculosis
[13] = target: T5, Ubiquitin-conjugating enzyme E2 N (Homo sapiens, UniProt P61088); format: functional;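 note: Dose-response confirmation in a TR-FRET assay detecting UBC13-driven polyubiquitin chain formation, inhibition measured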
T5 sequence (P61088 whole entry): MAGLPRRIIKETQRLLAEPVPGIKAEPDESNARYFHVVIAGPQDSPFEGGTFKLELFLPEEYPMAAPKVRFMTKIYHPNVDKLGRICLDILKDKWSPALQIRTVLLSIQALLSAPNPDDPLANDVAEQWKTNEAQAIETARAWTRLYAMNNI

Melanocortin receptor 4 = Melanocortin receptor 4 (Homo sapiens, UniProt P32245); format: functional, cell-based;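 note: Cell-based assay with luminescence read-out, confirmatory dose-response testing for agonist activity of biased ligands at MC4R; human U2OS cells with tagged receptor and beta-arrestin; potency of agonists that increase receptor coupling to beta-arrestin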
Melanocortin receptor 4, sequence (P32245 whole entry): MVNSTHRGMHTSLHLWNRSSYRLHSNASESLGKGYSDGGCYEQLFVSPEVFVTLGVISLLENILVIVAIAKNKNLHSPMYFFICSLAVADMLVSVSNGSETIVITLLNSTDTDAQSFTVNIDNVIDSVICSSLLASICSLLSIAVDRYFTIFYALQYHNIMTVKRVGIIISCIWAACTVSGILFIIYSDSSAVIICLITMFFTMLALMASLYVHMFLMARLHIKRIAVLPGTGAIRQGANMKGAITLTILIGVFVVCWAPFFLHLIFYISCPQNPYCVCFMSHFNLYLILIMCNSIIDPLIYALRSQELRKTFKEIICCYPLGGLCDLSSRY

[14] = OVCAR8 cell viability loss – plate reader, dry powder samples, PAX8 project, dose response (AID 743197); format: functional, cell-based; conditions: OVCAR-8
[15] = IGROV1 cell killing – plate reader, dry powder samples, PAX8 inhibitor project, dose response (AID 743043); format: functional, cell-based; conditions: IGROV-1
Paired box protein Pax-8 = Paired box protein Pax-8 (Homo sapiens, UniProt Q06710); experiment: PAX8 transcriptional activity inhibition in RMG-I – RMG-I cells, luciferase, cherry-pick, dose response (AID 687027); format: functional, cell-based;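 note: luciferase reporter driven by Pax8 target thyroperoxidase promoter measured by SteadyGlo luminescence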
Paired box protein Pax-8, sequence (Q06710 whole entry): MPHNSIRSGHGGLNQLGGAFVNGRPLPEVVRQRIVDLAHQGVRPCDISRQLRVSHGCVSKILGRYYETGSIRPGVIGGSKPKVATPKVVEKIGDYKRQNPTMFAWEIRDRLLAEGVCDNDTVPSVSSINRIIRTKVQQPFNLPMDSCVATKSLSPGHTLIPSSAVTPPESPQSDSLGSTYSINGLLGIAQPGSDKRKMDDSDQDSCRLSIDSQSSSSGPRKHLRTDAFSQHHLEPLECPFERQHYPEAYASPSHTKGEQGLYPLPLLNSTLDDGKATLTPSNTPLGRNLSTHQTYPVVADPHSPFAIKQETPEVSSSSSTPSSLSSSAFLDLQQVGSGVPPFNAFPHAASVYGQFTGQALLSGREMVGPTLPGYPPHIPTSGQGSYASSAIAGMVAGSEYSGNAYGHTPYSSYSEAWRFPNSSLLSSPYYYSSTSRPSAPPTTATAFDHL

[16] = OVCAR-3 cell viability loss – plate reader, dry powder samples, PAX8 inhibitor project, dose response (AID 743044); format: functional, cell-based
[17] = target: T6, Oxysterols receptor LXR-beta (Homo sapiens, UniProt P55055); format: functional, cell-based;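 note: agonist activity at LXR measured by a cell-based luminescence readout across a dose range, run as a counterscreen for daf-12 agonists; HEK293 cells with Gal4-LXR fusion and GAL4-driven luciferase reporter; potency for activation of Gal4-LXR reporter so compounds are agonists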
T6 sequence (P55055 whole entry): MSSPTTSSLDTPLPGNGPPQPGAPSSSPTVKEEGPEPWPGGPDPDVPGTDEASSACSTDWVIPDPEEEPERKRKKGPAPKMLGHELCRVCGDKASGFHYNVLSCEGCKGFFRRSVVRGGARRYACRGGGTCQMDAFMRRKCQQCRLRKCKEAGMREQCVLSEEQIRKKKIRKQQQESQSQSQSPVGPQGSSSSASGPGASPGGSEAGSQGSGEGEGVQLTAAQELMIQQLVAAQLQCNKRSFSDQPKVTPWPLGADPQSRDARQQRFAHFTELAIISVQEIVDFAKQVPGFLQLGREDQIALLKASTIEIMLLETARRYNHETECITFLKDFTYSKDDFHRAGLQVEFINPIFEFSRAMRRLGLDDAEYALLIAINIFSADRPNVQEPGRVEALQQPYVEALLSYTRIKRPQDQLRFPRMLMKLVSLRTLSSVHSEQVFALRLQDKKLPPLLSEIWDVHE

[18] = T. cruzi growth inhibition in host cells, dose response, cell-based, plate reader, dry powder, set 2 (AID 652275); format: functional
cells [19] = format: functional, cell-based
cells [20] = format: functional, cell-based; remark: listed apart in the source

SMILES: CCn1cc(/C=C/C(=O)c2ccc(O)cc2)c(C)n1
- IC50 (HEK293 [1]): > 67.5 µM (inactive)
- IC50 [2]: > 67.5 µM (inactive)

SMILES: COc1ccccc1OCc1ccc(C(=O)N2CCN(C(=O)c3ccco3)CC2)cc1
- IC50 [3]: 36 µM (inactive)

SMILES: CC1CCN(C(=O)c2cc(-c3ccccc3O)on2)CC1
- AC50 (HeLa): 129 µM (active)

SMILES: COc1ccc(/C=C/C(=O)c2ccc(NS(=O)(=O)c3ccc(C)cc3)cc2)cc1O
- AC50 [4]: 2.69 µM (active)
- CC50 (Vero [5]): 17.9 µM (active)
- IC50 (Vero [6]): > 25 µM (active)
- EC50 [7]: 32.2 µM (active)

SMILES: COC(=O)c1ccc(COC(=O)C23CC4CC(CC(O)(C4)C2)C3)o1
- IC50 [3]: 17.4 µM (inactive)

SMILES: CCS(=O)(=O)N1CCN(c2nc(-c3ccccc3)cs2)CC1
- AC50 (HeLa): 61.6 µM (active)

SMILES: O=C(Nc1nc(-c2cccs2)cs1)c1cccc(S(=O)(=O)N2CCCCCC2)c1
- IC50 (Protein Wnt-3a): 19.2 µM (active)

SMILES: Cn1nccc1C(=O)NC1CCCc2c1cnn2-c1ccc(C(C)(C)C)cc1 (stereo not drawn)
- IC50 (Galanin receptor type 3): 0.143 µM (active)
- IC50 (HEK293 [8]): 16.4 µM (active)
- IC50 (Tumor necrosis factor): 0.2 µM (active)
- IC50 [9]: 0.232 µM (active)
- IC50 [10]: 1.25 µM (active)
- EC50 (cells [11]): > 29.9 µM (inactive)
- AC50 (INS1): 1.62 µM (active)

SMILES: COc1ccc(C(=O)Nc2nncs2)cc1S(=O)(=O)N1CC(c2ccccc2)CC1=O (stereo not drawn)
- IC50 (HEK293 [1]): > 67.5 µM (inactive)
- IC50 [2]: > 67.5 µM (inactive)

SMILES: CN(C)CCOc1ccc(-c2c(-c3ccsc3)sc3ccccc23)cc1
- AC50 [4]: 3.47 µM (active)
- CC50 [12]: 11.3 µM (active)
- IC50 [13]: > 20 µM (inactive)
- EC50 (Melanocortin receptor 4): > 89.2 µM (inactive)

SMILES: CCN(CC)C(=O)OCc1c(-c2ccccc2)ncc2ccccc12
- AC50 (HeLa): 110 µM (active)

SMILES: CC(=O)Nc1cc(-c2ccc(F)cc2)cn2c(-c3ccc(F)c(Cl)c3)cnc12
- EC50 (Melanocortin receptor 4): > 89.2 µM (inactive)

SMILES: C[C@@H]1CN([C@H](C)CO)C(=O)c2cc(NC(=O)Nc3ccccc3)ccc2O[C@@H](C)CCCCO[C@@H]1CN(C)Cc1ccc(C(F)(F)F)cc1
- AC50 [14]: 61.8 µM (active)
- AC50 [15]: 51.4 µM (active)
- AC50 (Paired box protein Pax-8): 6.35 µM (active)
- AC50 [16]: 28.6 µM (active)

SMILES: N#C/C(=N\Nc1ccc(Cl)cc1)C(=N)N1CCCCCC1
- IC50 (HEK293 [1]): > 0.833 µM (active)
- EC50 [17]: > 67.5 µM (inactive)
- IC50 [2]: > 67.5 µM (inactive)

SMILES: CN(C)CC#Cc1cccc(-c2nc(C(=O)NCCCN3CCOCC3)cc3c2[C@H](CCO)N([S+]([O-])C(C)(C)C)C3)c1 (stereo partly drawn)
- AC50 [18]: 1.24 µM (active)

SMILES: CC(C)N1C[C@H](C)[C@@H](CN(C)Cc2ccc(Cl)cc2)Oc2c(cccc2-c2nnn(-c3ccncc3)n2)C1=O
- AC50 [18]: 0.12 µM (active)

SMILES: Oc1ccc(Cl)cc1/C=N/CCc1ccccc1
- IC50 (cells [19]): 9.79 µM (active)
- EC50 (cells [20]): > 29.9 µM (inactive)

SMILES: CCCn1c2c(c(=N)c3c1CCC3)CCCC2
- IC50 (Protein Wnt-3a): 37 µM (inactive)
